Data set [1] relates to Chrysosporium keratinophilum. In words: Agar plate disc-diffusion, Chrysosporium keratinophilum. Particulars: disc 10 μL of 10 mg/mL in DMSO, 72 h, result in words. It counts as cell-based. Here is the method: (§1) The antimicrobial properties of the synthesized compounds were studied by the method of agar plate disc-diffusion. Sterilized filter papers (6 mm in diameter) were wetted with 10 μL of a solution of each compound to be tested, containing 10 mg/mL in DMSO, and the discs were allowed to air dry. The discs were then placed onto the surface of agar plates (nutrient agar for bacteria and Sabouraud's dextrose agar for fungi) seeded with the test organism. Each plate contained 15 mL of the agar medium, previously seeded with 0.2 mL of the broth culture of each organism pregrown for 18 h. The plates were incubated at 37° C. for 48 h, and 72 h for fungi. The inhibition zones were measured in mm. Discs impregnated with DMSO were used as a control, and its inhibition zone was subtracted from the tested compound actual inhibition zone.
A general note: Agar diffusion results depend on both activity and mobility in agar.

For the next data set, the system named is Pseudomonas aeruginosa. In words: Agar plate disc-diffusion, Pseudomonas aeruginosa. It counts as cell-based. The note with it: gram-negative Pseudomonas aeruginosa; disc 10 μL of 10 mg/mL in DMSO, 37° C., 48 h; result in words. Here is the method: as §1
The test system of data set [2] is human osteosarcoma cells (MG-63). In words: Cytotoxicity by SRB assay, MG-63. It counts as cell-based. Particulars: MG-63 cells, 0.01 μM to 100 μM for 72 h, result in words. Here is the method: (§2) The human prostate cancer cells (PC3) and human osteosarcoma cells (MG-63) were obtained from Nawah Scientific Inc. (Mokatam, Cairo, Egypt) and cultured in DMEM (Dulbecco's modified eagle's medium), Gibco, USA, supplemented with fetal bovine serum (FBS) at a concentration of 10% and 100 U/mL of penicillin and streptomycin (PS). The Cells were incubated at 37° C. in a humidified environment that contained 5% CO2. Cells were seeded in 96-well plates as aliquots of 100 μL cell suspension and incubated in a complete media for 24 h. afterward, cells were treated with 1-Cyclopropyl-6-fluoro-4-oxo-7-(4-((2-thioxobenzo[d]oxazol-3(2H)-yl)methyl)piperazin-1-yl)-1,4-dihydroquinoline-3-carboxylic acid at diverse concentrations ranging from 0.01 μM to 100 μM for 72 h. Then, cells were fixed at 4° C. for one hour with 150 μL of 10% trichloroacetic acid (TCA). […] Then, 150 μL of Tris pH 10.5 (10 mM) was added, and the absorbance was measured at 540 nm using a BMG LABTECH®-FLUOstar Omega microplate reader (Ortenberg, Germany). Half maximal inhibitory concentrations (IC50) values were calculated for each experiment using GraphPad Prism 6 software. […] The inhibition was calculated using the following equation: Inhibition %=100−Average Viability
In general terms: In SRB staining, fixed cells bind dye roughly in proportion to their protein.

Data set [3] has as its system human prostate cancer cells (PC3). In words: Cytotoxicity by SRB assay, PC3. The note with it: 0.01 μM to 100 μM for 72 h, result in words. It counts as cell-based. Here is the method: as §2
In a further data set the test system is Escherichia coli. In words: Agar plate disc-diffusion, Escherichia coli. It is filed as cell-based. Particulars: gram-negative Escherichia coli; disc 10 μL of 10 mg/mL in DMSO, 37° C., 48 h; result in words. As for the experimental part: as §1
The next data set relates to Aspergillus flavus. In words: Agar plate disc-diffusion, Aspergillus flavus. It is filed as cell-based. Particulars: disc 10 μL of 10 mg/mL in DMSO, 72 h, result in words. Here is the method:
as §1

In another data set the test system is Staphylococcus aureus. In words: Agar plate disc-diffusion, Staphylococcus aureus. It counts as cell-based. Particulars: gram positive Staphylococcus aureus; disc 10 μL of 10 mg/mL in DMSO, 37° C., 48 h; result in words. As for the experimental part: as §1
The test system of another data set is Bacillus cereus. In words: Agar plate disc-diffusion, Bacillus cereus. Particulars: gram positive Bacillus cereus; disc 10 μL of 10 mg/mL in DMSO, 37° C., 48 h; result in words. It counts as cell-based. As for the experimental part:
as §1

As for `O=C(O)c1cn(C2CC2)c2cc(N3CCN(Cn4c(=S)oc5ccccc54)CC3)c(F)cc2c1=O` [1-cyclopropyl-6-fluoro-4-oxo-7-(4-((2-thioxobenzo[d]oxazol-3(2H)-yl)methyl)piperazin-1-yl)-1,4-dihydroquinoline-3-carboxylic acid], the melting point is 187 to 189 °C. In addition, the antifungal activity result in [1] is given as “excellent antimicrobials activities”. In addition, the antibacterial activity entry with Pseudomonas aeruginosa was “excellent antimicrobials activities”. The antiproliferative activity result in [2] is recorded as “excellent antiproliferative activities”. Besides, the antiproliferative activity result in [3] is recorded as “excellent antiproliferative activities”. Also, the antibacterial activity entry in the data set with Escherichia coli was “excellent antimicrobials activities”. The antifungal activity entry in the data set with Aspergillus flavus is reported as “excellent antimicrobials activities”. In the data set on Staphylococcus aureus, the antibacterial activity result is “excellent antimicrobials activities”. Moreover, in the data set on Bacillus cereus, the antibacterial activity result is recorded as “excellent antimicrobials activities”.

In general, melting point refers to the temperature of the solid-liquid transition.

Values taken from US11926620B1, “1-Cyclopropyl-6-fluoro-4-oxo-7-(4-((2-thioxobenzo[d]oxazol-3(2H)-yl)methyl)piperazin-1-yl)-1,4-dihydroquinoline-3-carboxylic acid as an antimicrobial and anticancer compound” (KING FAISAL UNIVERSITY, priority 2023, dated 2024).
